# US12501899B2, “Mite infestation treatment” (priority 2019, dated 2025)
# Structures can show the parent of a compound that is named as a salt. Where two headings read alike, the source gives them in different places.
# Test system: Ixodes ricinus
# Assay: Oral acaricidal test on ticks in membrane feeding wells with treated blood
# Assay type: in vivo
# Details: for mortality at 1 ppm / mortality at 10 ppm / mortality at 100 ppm: Ixodes ricinus, po
# Procedure: A laboratory study was conducted to determine the oral acaricidal properties of three compounds according to the invention (SN0305, SN0306 and SN0307) against Ixodes ricinus. Each compound was tested at 1, 10 and 100 ppm, and compared to a negative control corresponding to solvent alone (0.1% DMSO). Amitraz at 100 ppm was used as a positive control.
# The Ixodes ricinus ticks (nymphs and adults) were placed for 24 hours on a membrane in feeding wells containing blood mixed with the tested compounds. Tick mortality (number of dead, moribund, or unaffected ticks in each well), attachment to the membrane (number of ticks attached/detached in each well), and the behavior (presence or absence of twitches) were examined 1, 3, 6, 12, 24, 48, 72, and 96 hours after the onset of tick exposure to the compounds.
# Ticks (Ixodes ricinus) were collected. Collected adult females were kept separate from the nymphs and both were placed in sterile tubes in a humidity chamber to provide ˜80% humidity and 17° C. Only healthy ticks (females/nymphs) were chosen for the experiment.
# Batches of 12 adults or nymphs were inserted into the feeding wells. After about 24 hours, their attachment was examined with a brush.
# The efficiency of three compounds (SN0305, SN0306 and SN0307), each tested at three concentrations (1, 10, 100 ppm), was compared to the solvent control (0.1% DMSO, Sigma-Aldrich D-5879; Lot 101K0028) and to the positive control (Amitraze at 100 ppm).
# Silicone-coated membranes with a thickness comprised between 110 and 140 μm were used for the construction of the feeding units.
# Feeding units (sterilized acrylic glass tubes) were placed in feeding wells made of sterilized six-well plates.
# 3.1 ml of sterile 10^−3 M ATP-enriched blood was applied to each feeding well. Feeding wells were then inserted into a heated water bath (FIG. 12) and maintained at 37° C.±2° C.
# Stock solutions of 100,000 ppm were prepared and tenth dilutions were carried out in 0.1% DMSO to reach the desired concentrations. After tick attachment (24 hours after placing the ticks in the feeding wells), 3.1 μl of the solutions were added to each feeding well containing 3.1 ml of blood. Blood was changed after 12 hours with fresh supplementation of the compounds to be tested. The ticks were exposed to the product for a total of 24 hours, after which the blood was again changed to fresh, untreated blood.
# Tick mortality (number of dead, moribund or unaffected ticks in each well), attachment (number of attached/detached ticks in each well) and behavior (presence, absence and intensity of convulsions) were examined 1, 3, 6, 12, 24, 48, 72, and 96 hours after the start of tick exposure to the compound.
# [1] = adult ticks, 1 h, read-out: average percentage of adult tick mortality (moribund or dead adult ticks)
# [2] = adult ticks, 3 h, read-out: average percentage of adult tick mortality (moribund or dead adult ticks)
# [3] = adult ticks, 6 h, read-out: average percentage of adult tick mortality (moribund or dead adult ticks)
# [4] = adult ticks, 12 h, read-out: average percentage of adult tick mortality (moribund or dead adult ticks)
# [5] = adult ticks, 24 h, read-out: average percentage of adult tick mortality (moribund or dead adult ticks)
# [6] = adult ticks, 48 h, read-out: average percentage of adult tick mortality (moribund or dead adult ticks)
# [7] = adult ticks, 72 h, read-out: average percentage of adult tick mortality (moribund or dead adult ticks)
# [8] = adult ticks, 96 h, read-out: average percentage of adult tick mortality (moribund or dead adult ticks)
# [9] = nymphs, 1 h, read-out: average percentage of mortality of tick nymphs (moribund or dead nymphs)
# [10] = nymphs, 3 h, read-out: average percentage of mortality of tick nymphs (moribund or dead nymphs)
# [11] = nymphs, 6 h, read-out: average percentage of mortality of tick nymphs (moribund or dead nymphs)
# [12] = nymphs, 12 h, read-out: average percentage of mortality of tick nymphs (moribund or dead nymphs)
# [13] = nymphs, 24 h, read-out: average percentage of mortality of tick nymphs (moribund or dead nymphs)
# [14] = nymphs, 48 h, read-out: average percentage of mortality of tick nymphs (moribund or dead nymphs)
# [15] = nymphs, 72 h, read-out: average percentage of mortality of tick nymphs (moribund or dead nymphs)
# [16] = nymphs, 96 h, read-out: average percentage of mortality of tick nymphs (moribund or dead nymphs)
smiles,measurement,setting,value
"Cc1cccc(Cc2cnc[nH]2)c1C [Detomidine hydrochloride, 4-[(2,3-dimethylphenyl)-methyl]-3H-imidazole]",effect in terms of tick detachment (in words),"1, 10, 100 ppm, nymphs and adults",very limited effect
same,detached adults in a replica,"1 ppm, adult ticks",2
same,mortality at 1 ppm,"adult ticks, 1 ppm, 1 h, read-out: average percentage of adult tick mortality (moribund or dead adult ticks)",0%
same,mortality at 1 ppm,"adult ticks, 1 ppm, 3 h, read-out: average percentage of adult tick mortality (moribund or dead adult ticks)",0%
same,mortality at 1 ppm,"adult ticks, 1 ppm, 6 h, read-out: average percentage of adult tick mortality (moribund or dead adult ticks)",2.8%
same,mortality at 1 ppm,"adult ticks, 1 ppm, 12 h, read-out: average percentage of adult tick mortality (moribund or dead adult ticks)",2.8%
same,mortality at 1 ppm,"adult ticks, 1 ppm, 24 h, read-out: average percentage of adult tick mortality (moribund or dead adult ticks)",62.9%
same,mortality at 1 ppm,"adult ticks, 1 ppm, 48 h, read-out: average percentage of adult tick mortality (moribund or dead adult ticks)",88.2%
same,mortality at 1 ppm,"adult ticks, 1 ppm, 72 h, read-out: average percentage of adult tick mortality (moribund or dead adult ticks)",100%
same,mortality at 1 ppm,"adult ticks, 1 ppm, 96 h, read-out: average percentage of adult tick mortality (moribund or dead adult ticks)",100%
same,mortality at 10 ppm,[1],0%
same,mortality at 10 ppm,[2],0%
same,mortality at 10 ppm,[3],8.3%
same,mortality at 10 ppm,[4],8.3%
same,mortality at 10 ppm,[5],52.1%
same,mortality at 10 ppm,[6],96.4%
same,mortality at 10 ppm,[7],100%
same,mortality at 10 ppm,[8],100%
same,mortality at 100 ppm,[1],0%
same,mortality at 100 ppm,[2],0%
same,mortality at 100 ppm,[3],8.8%
same,mortality at 100 ppm,[4],15.4%
same,mortality at 100 ppm,[5],24%
same,mortality at 100 ppm,[6],57.4%
same,mortality at 100 ppm,[7],100%
same,mortality at 100 ppm,[8],100%
same,mortality at 1 ppm,"nymphs, 1 ppm, 1 h, read-out: average percentage of mortality of tick nymphs (moribund or dead nymphs)",0%
same,mortality at 1 ppm,"nymphs, 1 ppm, 3 h, read-out: average percentage of mortality of tick nymphs (moribund or dead nymphs)",0%
same,mortality at 1 ppm,"nymphs, 1 ppm, 6 h, read-out: average percentage of mortality of tick nymphs (moribund or dead nymphs)",14.1%
same,mortality at 1 ppm,"nymphs, 1 ppm, 12 h, read-out: average percentage of mortality of tick nymphs (moribund or dead nymphs)",35.4%
same,mortality at 1 ppm,"nymphs, 1 ppm, 24 h, read-out: average percentage of mortality of tick nymphs (moribund or dead nymphs)",56.4%
same,mortality at 1 ppm,"nymphs, 1 ppm, 48 h, read-out: average percentage of mortality of tick nymphs (moribund or dead nymphs)",97.2%
same,mortality at 1 ppm,"nymphs, 1 ppm, 72 h, read-out: average percentage of mortality of tick nymphs (moribund or dead nymphs)",100%
same,mortality at 1 ppm,"nymphs, 1 ppm, 96 h, read-out: average percentage of mortality of tick nymphs (moribund or dead nymphs)",100%
same,mortality at 10 ppm,[9],0%
same,mortality at 10 ppm,[10],12.7%
same,mortality at 10 ppm,[11],35.5%
same,mortality at 10 ppm,[12],54.7%
same,mortality at 10 ppm,[13],88.1%
same,mortality at 10 ppm,[14],100%
same,mortality at 10 ppm,[15],100%
same,mortality at 10 ppm,[16],100%
same,mortality at 100 ppm,[9],0%
same,mortality at 100 ppm,[10],9.4%
same,mortality at 100 ppm,[11],45.3%
same,mortality at 100 ppm,[12],69.5%
same,mortality at 100 ppm,[13],95.5%
same,mortality at 100 ppm,[14],100%
same,mortality at 100 ppm,[15],100%
same,mortality at 100 ppm,[16],100%
same,"ticks affected (convulsion, morbidity or death of ticks)","from 1 hour of exposure, regardless of the concentration tested (1, 10, 100 ppm)",100%
